Key:
S. pneumoniae D39V [1] = test: Bliss interaction score (quartile over a dose matrix) (fitness difference); higher = more antagonism (negative = synergy)
Outline: (§1)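 Fitness here means normalised growth, inferred for single drugs from the combination data. Growth was OD595 at entry into stationary phase, divided by the plate's robust no-drug mean and capped at 1. The Bliss score is observed minus expected fitness, with the expectation being the product, and its quartiles span technical, biological and donor/recipient replicates.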

S. aureus Newman [2] = test: as above
Outline: as §1

B. subtilis 168 [3] = test: as above
Outline: as §1

S. aureus DSM 20231 [4] = test: as above
Outline: as §1

S. pneumoniae D39V [5] = test: fitness (endpoint OD595 vs no drug) (fraction); higher = more growth
Outline: (§2)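 Fitness expresses the optical density reached at the stationary-phase transition as a fraction of the robust mean of no-drug control wells. It is capped at 1. Measurements were OD595 every 30 min for 14 h at 37 °C after inoculation of 384-well plates at OD595 0.01 (30 µl, or 55 µl for S. pneumoniae), minus the first reading.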

S. aureus Newman [6] = test: as above
Outline: as §2

B. subtilis 168 [7] = test: as above
Outline: as §2

S. aureus DSM 20231 [8] = test: as above
Outline: as §2
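Throughout, for Bliss interaction score (quartile over a dose matrix): first quartile when negative (synergy) and third quartile when positive (antagonism).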
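Throughout, for fitness (endpoint OD595 vs no drug): OD595 on entry to stationary phase over no-drug wells; at most 1.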

CCCCCCCCCC(=O)N[C@@H](Cc1c[nH]c2ccccc12)C(=O)N[C@H](CC(N)=O)C(=O)N[C@@H](CC(=O)O)C(=O)N[C@@H]1C(=O)NCC(=O)N[C@@H](CCCN)C(=O)N[C@@H](CC(=O)O)C(=O)N[C@H](C)C(=O)N[C@@H](CC(=O)O)C(=O)NCC(=O)N[C@H](CO)C(=O)N[C@@H]([C@H](C)CC(=O)O)C(=O)N[C@@H](CC(=O)c2ccccc2N)C(=O)O[C@@H]1C [Daptomycin] + COc1c(N2C[C@@H]3CCCN[C@@H]3C2)c(F)cc2c(=O)c(C(=O)O)cn(C3CC3)c12 [Moxifloxacin]
Conditions	Bliss interaction score
B. subtilis 168 [3]	-0.0294
S. aureus DSM 20231 [4]	-0.0667
S. aureus Newman [2]	0.0375
S. pneumoniae D39V [1]	-0.0679

Conditions	fitness
B. subtilis 168 [7], first compound 0.125 µg/mL, partner 0.0312 µg/mL	0.0461
B. subtilis 168 [7], first compound 0.125 µg/mL, partner 0.0625 µg/mL	0.0437
B. subtilis 168 [7], first compound 0.125 µg/mL, partner 0.125 µg/mL	0.0394
B. subtilis 168 [7], first compound 0.125 µg/mL, partner 2 µg/mL	0.0342
B. subtilis 168 [7], first compound 0.125 µg/mL, partner 4 µg/mL	0.0583
B. subtilis 168 [7], first compound 0.125 µg/mL, partner 8 µg/mL	0.0431
B. subtilis 168 [7], first compound 0.25 µg/mL, partner 0.0312 µg/mL	0.0537
B. subtilis 168 [7], first compound 0.25 µg/mL, partner 0.0625 µg/mL	0.0246
B. subtilis 168 [7], first compound 0.25 µg/mL, partner 0.125 µg/mL	0.019
B. subtilis 168 [7], first compound 0.25 µg/mL, partner 2 µg/mL	0.0893
B. subtilis 168 [7], first compound 0.25 µg/mL, partner 4 µg/mL	0.0796
B. subtilis 168 [7], first compound 0.25 µg/mL, partner 8 µg/mL	0.124
B. subtilis 168 [7], first compound 0.5 µg/mL, partner 0.0312 µg/mL	0.0547
B. subtilis 168 [7], first compound 0.5 µg/mL, partner 0.0625 µg/mL	0.026
B. subtilis 168 [7], first compound 0.5 µg/mL, partner 0.125 µg/mL	0.0309
B. subtilis 168 [7], first compound 0.5 µg/mL, partner 2 µg/mL	0.0708
B. subtilis 168 [7], first compound 0.5 µg/mL, partner 4 µg/mL	0.044
B. subtilis 168 [7], first compound 0.5 µg/mL, partner 8 µg/mL	0.0672
S. aureus DSM 20231 [8], first compound 0.5 µg/mL, partner 0.0075 µg/mL	0.776
S. aureus DSM 20231 [8], first compound 0.5 µg/mL, partner 0.015 µg/mL	0.754
S. aureus DSM 20231 [8], first compound 0.5 µg/mL, partner 0.03 µg/mL	0.673
S. aureus DSM 20231 [8], first compound 1 µg/mL, partner 0.0075 µg/mL	0.837
S. aureus DSM 20231 [8], first compound 1 µg/mL, partner 0.015 µg/mL	0.786
S. aureus DSM 20231 [8], first compound 1 µg/mL, partner 0.03 µg/mL	0.696
S. aureus DSM 20231 [8], first compound 2 µg/mL, partner 0.0075 µg/mL	0.761
S. aureus DSM 20231 [8], first compound 2 µg/mL, partner 0.015 µg/mL	0.749
S. aureus DSM 20231 [8], first compound 2 µg/mL, partner 0.03 µg/mL	0.655
S. aureus Newman [6], first compound 0.125 µg/mL, partner 0.0075 µg/mL	0.751
S. aureus Newman [6], first compound 0.25 µg/mL, partner 0.0075 µg/mL	0.744
S. aureus Newman [6], first compound 0.25 µg/mL, partner 0.015 µg/mL	0.636
S. aureus Newman [6], first compound 0.5 µg/mL, partner 0.0075 µg/mL	0.774
S. pneumoniae D39V [5], first compound 1 µg/mL, partner 0.005 µg/mL	0.947
S. pneumoniae D39V [5], first compound 1 µg/mL, partner 0.01 µg/mL	0.965
S. pneumoniae D39V [5], first compound 1 µg/mL, partner 0.02 µg/mL	0.846
S. pneumoniae D39V [5], first compound 1 µg/mL, partner 0.0312 µg/mL	0.0587
S. pneumoniae D39V [5], first compound 1 µg/mL, partner 0.0625 µg/mL	0.0444
S. pneumoniae D39V [5], first compound 1 µg/mL, partner 0.125 µg/mL	0.0384
S. pneumoniae D39V [5], first compound 2 µg/mL, partner 0.005 µg/mL	0.946
S. pneumoniae D39V [5], first compound 2 µg/mL, partner 0.01 µg/mL	0.951
S. pneumoniae D39V [5], first compound 2 µg/mL, partner 0.02 µg/mL	0.826
S. pneumoniae D39V [5], first compound 2 µg/mL, partner 0.0312 µg/mL	0.0617
S. pneumoniae D39V [5], first compound 2 µg/mL, partner 0.0625 µg/mL	0.0424
S. pneumoniae D39V [5], first compound 2 µg/mL, partner 0.125 µg/mL	0.0433
S. pneumoniae D39V [5], first compound 4 µg/mL, partner 0.005 µg/mL	0.95
S. pneumoniae D39V [5], first compound 4 µg/mL, partner 0.01 µg/mL	0.988
S. pneumoniae D39V [5], first compound 4 µg/mL, partner 0.02 µg/mL	0.885
S. pneumoniae D39V [5], first compound 4 µg/mL, partner 0.0312 µg/mL	0.0587
S. pneumoniae D39V [5], first compound 4 µg/mL, partner 0.0625 µg/mL	0.0393
S. pneumoniae D39V [5], first compound 4 µg/mL, partner 0.125 µg/mL	0.0263

fitness, one replicate
Conditions	first compound 0.5 µg/mL	first compound 1 µg/mL	first compound 2 µg/mL
B. subtilis 168 [7], partner 0.0312 µg/mL	–	0.0152	–
B. subtilis 168 [7], partner 0.0625 µg/mL	–	0.0268	–
B. subtilis 168 [7], partner 0.125 µg/mL	–	0.0146	–
S. aureus DSM 20231 [8], partner 0.06 µg/mL	0.667	0.654	0.637
S. aureus DSM 20231 [8], partner 0.12 µg/mL	0.49	0.46	0.46

CCCCCCCCCC(=O)N[C@@H](Cc1c[nH]c2ccccc12)C(=O)N[C@H](CC(N)=O)C(=O)N[C@@H](CC(=O)O)C(=O)N[C@@H]1C(=O)NCC(=O)N[C@@H](CCCN)C(=O)N[C@@H](CC(=O)O)C(=O)N[C@H](C)C(=O)N[C@@H](CC(=O)O)C(=O)NCC(=O)N[C@H](CO)C(=O)N[C@@H]([C@H](C)CC(=O)O)C(=O)N[C@@H](CC(=O)c2ccccc2N)C(=O)O[C@@H]1C [Daptomycin] + COc1ccc(C[C@H](N)C(=O)N[C@H]2[C@@H](O)[C@H](n3cnc4c(N(C)C)ncnc43)O[C@@H]2CO)cc1 [Puromycin]
Conditions	Bliss interaction score
B. subtilis 168 [3]	0.0496
S. aureus DSM 20231 [4]	0.0803
S. aureus Newman [2]	0.0477
S. pneumoniae D39V [1]	-0.0975

fitness
Conditions	first compound 0.125 µg/mL	first compound 0.25 µg/mL	first compound 0.5 µg/mL	first compound 1 µg/mL	first compound 2 µg/mL	first compound 4 µg/mL
B. subtilis 168 [7], partner 0.39 µg/mL	0.937	0.932	0.894	–	–	–
B. subtilis 168 [7], partner 0.78 µg/mL	0.912	0.91	0.864	–	–	–
B. subtilis 168 [7], partner 1.56 µg/mL	0.906	0.916	0.841	–	–	–
S. aureus DSM 20231 [8], partner 0.39 µg/mL	–	–	0.993	≥ 1	≥ 1	–
S. aureus DSM 20231 [8], partner 0.78 µg/mL	–	–	≥ 1	0.977	≥ 1	–
S. aureus DSM 20231 [8], partner 1.56 µg/mL	0.953	≥ 1	≥ 1	0.989	0.957	–
S. aureus Newman [6], partner 0.39 µg/mL	0.998	1	0.997	–	–	–
S. aureus Newman [6], partner 0.78 µg/mL	0.992	0.989	0.995	–	–	–
S. aureus Newman [6], partner 1.56 µg/mL	≥ 1	0.983	≥ 1	–	–	–
S. pneumoniae D39V [5], partner 1 µg/mL	–	–	–	0.939	0.969	0.922
S. pneumoniae D39V [5], partner 2 µg/mL	–	–	–	0.892	0.876	0.909
S. pneumoniae D39V [5], partner 4 µg/mL	–	–	–	0.32	–	–

fitness, one replicate
Conditions	partner 0.39 µg/mL	partner 0.78 µg/mL	partner 1.56 µg/mL	partner 3.12 µg/mL	partner 6.24 µg/mL
B. subtilis 168 [7], first compound 1 µg/mL	0.719	0.737	0.749	–	–
S. aureus DSM 20231 [8], first compound 0.125 µg/mL	0.935	≥ 1	–	0.968	0.865
S. aureus DSM 20231 [8], first compound 0.25 µg/mL	≥ 1	≥ 1	–	0.932	0.81
S. aureus DSM 20231 [8], first compound 0.5 µg/mL	–	–	–	0.962	0.762

Source: the supplement of paper PMC10627819
